Molecular target: β2AR-Gs (Homo sapiens, UniProt P07550)
Test: Gs activation by [35S]GTPγS binding, reconstituted β2AR-Gs in lipid bicelles
Assay type: biochemical
Conditions: 10 μM DFPQ, 1 μM ISO, FIG. 5E
Experimental: FIGS. 5A-5E illustrate certain embodiments of the disclosure. FIG. 5A: Primary titration screening data of DFPQ. […] FIGS. 5C and 5D: […] Wells were read every 2 min post agonist addition. FIG. 5E: […] Bound [^35S]-GTPγS was collected by rapid filtration on GF/B filters, washed 4 times with 4 ml of cold GTPγS wash buffer and analyzed by liquid scintillation. […]® ADRB2 cells (DiscoveRx) were maintained with the AssayCompleteTM Cell Culture kit (DiscoveRx catalog #92-[…]). […] HEK 293 cells stably overexpressing β2AR included 250 μg/ml G418. Cells were incubated at 37° C. in a humidified incubator with 5% CO2. […] Cells were read every three minutes for 18 minutes on a PolarStar Optima plate reader (BMG) to establish peak signal. […] Luminescence was determined at room temperature (23-25° C.) on a PolarStar Optima plate reader (BMG). […] Relative assay bias was calculated from the ratio of normalized cAMP and arrestin recruitment responses. […] BRET was measured using a Tecan Infinite F500 microplate reader. […] Bound [35 S]GTPγS was collected by rapid filtration on GF/B filters, washed 4 times with 4 ml of cold GTPγS wash buffer and analyzed by liquid scintillation counting. […] Immunoprecipitated proteins were separated by SDS-PAGE and analyzed by western blot using a β2AR C-terminal tail or phospho-specific antibody. […] Band intensity was measured by densitometry using ImageJ. […]

β2AR-Gs, sequence (P07550 whole entry): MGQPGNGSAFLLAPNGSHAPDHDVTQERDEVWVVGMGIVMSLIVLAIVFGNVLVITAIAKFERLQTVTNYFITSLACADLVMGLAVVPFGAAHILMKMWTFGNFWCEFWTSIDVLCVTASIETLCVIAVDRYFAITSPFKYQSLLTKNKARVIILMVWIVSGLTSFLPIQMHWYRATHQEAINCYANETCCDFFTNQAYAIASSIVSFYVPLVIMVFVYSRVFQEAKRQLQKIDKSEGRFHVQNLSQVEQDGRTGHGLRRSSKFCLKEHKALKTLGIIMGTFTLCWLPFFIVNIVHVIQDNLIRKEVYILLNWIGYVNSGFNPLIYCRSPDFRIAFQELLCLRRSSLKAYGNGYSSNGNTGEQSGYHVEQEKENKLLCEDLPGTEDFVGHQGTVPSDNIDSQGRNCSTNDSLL
β2AR-Gs, sequence (P63092 whole entry partner): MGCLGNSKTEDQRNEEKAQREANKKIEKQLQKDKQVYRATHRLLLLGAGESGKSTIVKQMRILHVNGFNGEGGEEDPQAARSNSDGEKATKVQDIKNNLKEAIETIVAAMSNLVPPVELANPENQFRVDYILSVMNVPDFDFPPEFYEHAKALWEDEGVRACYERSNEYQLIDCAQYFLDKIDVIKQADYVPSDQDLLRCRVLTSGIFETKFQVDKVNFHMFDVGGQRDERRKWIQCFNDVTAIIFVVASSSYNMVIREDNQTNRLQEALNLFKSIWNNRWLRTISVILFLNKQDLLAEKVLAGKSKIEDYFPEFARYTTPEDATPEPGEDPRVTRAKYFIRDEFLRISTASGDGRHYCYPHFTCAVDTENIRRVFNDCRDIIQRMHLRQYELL
β2AR-Gs, sequence (P62873 whole entry partner): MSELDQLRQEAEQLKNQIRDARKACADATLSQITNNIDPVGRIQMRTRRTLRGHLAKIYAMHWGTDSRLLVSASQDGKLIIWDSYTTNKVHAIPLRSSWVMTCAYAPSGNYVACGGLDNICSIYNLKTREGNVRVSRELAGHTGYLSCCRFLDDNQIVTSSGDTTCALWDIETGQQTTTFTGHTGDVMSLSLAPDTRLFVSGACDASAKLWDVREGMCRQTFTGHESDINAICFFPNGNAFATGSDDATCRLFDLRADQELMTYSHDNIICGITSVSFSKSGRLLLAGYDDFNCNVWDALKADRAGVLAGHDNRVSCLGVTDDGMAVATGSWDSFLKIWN
β2AR-Gs, sequence (P59768 2-68 partner): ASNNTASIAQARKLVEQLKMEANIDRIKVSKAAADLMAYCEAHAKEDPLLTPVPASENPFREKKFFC

Structure (SMILES): Fc1ccc(Nc2nc(NC3CCCCC3)c3ccccc3n2)cc1F [DFPQ, N^4-cyclohexyl-N^2-(3,4-difluorophenyl)quinazoline-2,4-diamine]
- effect on ISO-dependent activation of purified Gs by the β2AR (GTPγS binding): no effect

— patent publication US20240166626A1, “Compounds and Methods for Preventing, Treating, or Ameliorating Airway Disease” (THOMAS JEFFERSON UNIVERSITY, priority 2021, published 2024)
